US20200308162A1, “DRUGS AND COMPOSITIONS FOR OCULAR DELIVERY” (Graybug Vision, Inc., priority 2017, published 2020)
“Also recorded” adds a separate entry of the source.

Experiments:
[1] = In vitro stability of ethacrynic acid prodrugs at 37° C.; format: physicochemical
Description: As evidenced, both prodrugs of ethacrynic acid degrade steadily over the 6 day period. As the ester linkages are hydrolyzed, the parent compound is generated in a linear rate. The rate of degradation to the parent compound is faster for the shorter […] in comparison to the degradation kinetics for ethacrynic acid-PLA(n=4)-ethyl ester (1).
Approximately 94% of the ECA-PLA(n=4) prodrug (1) has been converted to free ECA by day 6, in comparison to only 56% for ECA-PLA(n=6) (25). Also, by day 6, all the initial prodrug has been degraded into intermediates and free drug respectively.

[2] = Drug release kinetics of Timolol and ethacrynic acid prodrugs from polymer microparticles; format: physicochemical
Method: The effect of polymer composition including monomer ratio and molecular weight, polymer end-groups (ester or acid), inherent viscosity and polymer blend ratios on particle degradation and drug release kinetics of Timolol-O-ethyl fumurate (17) was evaluated and is illustrated in FIG. 5. The rate of particle degradation was slowed and drug release was prolonged when the mole % of DL-lactide over glycolide was increased. By incorporating polymers with different monomer ratios (i.e., PLA, PLGA8515, PLGA525, PLGA5050 wherein 8515 refers to 85% DL-lactide and 15% glycolide) into the particles, it is possible to fine-tune the degradation rate of the particles to achieve a linear rate of drug release from the particles to minimize burst or lag and to extend the duration of release. […] The 78/22(PLA 5A/PLGA8515 4.5A) and 65/20/15(PLA 4A/PLGA6515 4.5A/PLGA5050 4A) polymer blends generated ideal particles for a 3-6 month linear release formulation. […] The rate of release was independent of the salt form. […] Thus, release rate is not solely dictated by the physicochemical properties of the linker, but rather must be attributed to a combination of parameters that may include linker type and site of linker conjugation.
FIG. 6 illustrates the release kinetics of ethacrynic acid-PLA(n=4)-ethyl ester (1) from PLGA microparticles. The drug was released over a period of approximately 66 days.
FIG. 8 and FIG. 9 illustrate the release kinetics of ethacrynic acid-PLA(n=4)-ethyl ester (1) and ethacrynic acid-PLA(n=6)-ethyl ester (25), respectively, from PLGA microparticles. The drug was released from a number of formulations over a period of greater than 90 days. […] Particles generated with 1% PVA in PBS was compared against particles generated in 1% PVA in water (FIG. 10).
Based upon these initial formulation screens, the formulation comprising of 1% mPEG-PLGA and 99% PLA100 4.5A:PLGA8515 5A (77:22) was selected as the lead formulation for ECA-PLA(n=4) (1) and ECA-PLA(n=6) (25) prodrugs. The particles were prepared in 1% PVA in water. The release profiles for the lead ECA-PLA(n=4) (1) and ECA-PLA(=6) (25) particle formulations are illustrated in FIG. 11.

[3] = Drug solubility in water, DMSO and DCM (HPLC of filtered supernatant); details: thermodynamic from solid
Method: For each test, approximately 5-10 mg was transferred to a 10 mL glass vial. Aqueous or organic solvent was added to each vial to achieve an overall concentration of 50 mg/mL. After vortexing aggressively for 2-3 minutes and sonicating in a bath sonicator for 5 minutes, undissolved drug was spun down at 1200 rpm for 5 minutes to generate a pellet. The supernatant was collected and filtered through a 0.2 μm nylon syringe filter into HPLC vials for drug content analysis. Drug concentration was determined by comparing against a standard calibration curve.

[4] = Mean size of ethacrynic acid prodrug encapsulated microparticles; format: physicochemical
[5] = Percent drug loading of ethacrynic acid prodrug microparticles (RP-HPLC); format: physicochemical
Method: To determine the percent drug loading (% DL), 10 mg of particles was weighed into a glass scintillation vial and dissolved with 10 mL of MeCN:water (1:1, v/v). The solution was filtered through a 0.2 μm nylon syringe filter and the drug content was determined by RP-HPLC referenced against a standard calibration curve.

[6] = clinical trials and post-marketing clinical use; cited from earlier work
[7] = In vitro drug release kinetics of Timolol prodrug microparticles in PBS and 1% Tween 20 (pH 7.4) at 37° C.; format: physicochemical
Method: In vitro drug release kinetics were evaluated in a release medium composed of PBS and 1% Tween 20 (pH 7.4). Briefly, 10 mg of particles was suspended in 4 mL of the release medium The particle suspension was incubated on an orbital shaker at 150 rpm at 37° C. At various time points, 3 mL of release media was collected, and the suspension was replenished with 3 mL of fresh release media. Collected release samples were frozen and stored at −80° C. until analysis for drug content. The collected samples were filtered through a 0.2 μm syringe filter and analyzed by RP-HPLC. FIG. 17-FIG. 22 illustrate the total and parent Timolol release profile for the microparticles encapsulating bis-prodrugs of Timolol of Table 11.

[8] = Stability of Timolol prodrugs in PBS via HPLC; format: physicochemical; details: PBS (100% PBS)
Method: The stability of Compound 51 was measured in 100% serum (FIG. 27A), 50% serum and 50% PBS (FIG. 27B), and 100% PBS (FIG. 27C) via HPLC. Each point on the graph is the retention time of Compound 51, parent Timolol, and 4 breakdown products at day 0, 1, 2, 3, 4, or 5 as measured. […] The concentration of the breakdown product with a retention time of 5.454 minutes was higher than the concentration of parent Timolol (retention time=4.4 minutes).
The stability of Compound 52 was measured in PBS (FIG. 28) and the stability of Compound 53 was measured in PBS (FIG. 29).

[9] = PLA100 4.5A + 1% PEG-PLGA5050, polymer 200 mg/mL
[10] = PLA100 4.5A + PLGA7525 6E (69:30) + 1% PEG-PLGA5050, polymer 200 mg/mL
[11] = PLA100 4.5A + PLGA8515 5A (77:22) + 1% PEG-PLGA5050, polymer 200 mg/mL
[12] = PLA100 4.5A + PLGA8515 5A + PLGA5050 4A (64:20:15) + 1% PEG-PLGA5050, polymer 200 mg/mL
[13] = PLA100 4.5A + PLGA8515 5A + PLGA5050 4A (64:30:5) + 1% PEG-PLGA5050, polymer 200 mg/mL
[14] = PLGA7525 4A + 1% PEG-PLGA5050, polymer 200 mg/mL
[15] = PLGA7525 6A + 1% PEG-PLGA5050, polymer 200 mg/mL
[16] = PLGA8515 5A + 1% PEG-PLGA5050, polymer 200 mg/mL
[17] = PLGA8515 5A + PLGA7525 4A (69:30) + 1% PEG-PLGA5050, polymer 200 mg/mL

C=C(CC)C(=O)c1ccc(OCC(=O)O[C@@H](C)C(=O)O[C@@H](C)C(=O)O[C@@H](C)C(=O)O[C@@H](C)C(=O)OCC)c(Cl)c1Cl [Compound 1, (S)-2-{2-[2,3-Dichloro-4-(2-methylene-butyryl)-phenoxy]-acetoxy}-propionic acid (S)-1-[(S)-1-((S)-1-ethoxycarbonyl-ethoxycarbonyl)-ethoxycarbonyl]-ethyl ester]
generation of parent ethacrynic acid as ester linkages are hydrolyzed ([1]; 37° C. over 6 days): generated at a linear rate
rate of degradation of the prodrug ([1]; 37° C., 6 days): slightly faster
prodrug converted to free ECA by day 6 ([1]; 37° C., day 6): Approximately 94%
in vitro release profile of lead microparticle formulation ([2]; 1% mPEG-PLGA and 99% PLA100 4.5A:PLGA8515 5A (77:22), prepared in 1% PVA in water, FIG. 11): typical biphasic release profile
period over which the drug was released ([2]; microparticles of PLA/PLGA blends, PLGA blends, FIG. 6): approximately 66 days
solubility ([3]; DMSO, organic solvent or mixture): > 40 mg/mL
solubility ([3]; water): < 1 mg/mL
Mean size [4, 9]: 35.06 um
Mean size [4, 10]: 27.40 um
Mean size [4, 11]: 26.60 um
Mean size [4, 12]: 28.34 um
Mean size [4, 13]: 29.86 um
Mean size [4, 14]: 29.85 um
Mean size [4, 15]: 25.21 um
Mean size [4, 16]: 28.90 um
Mean size [4, 17]: 27.74 um
% Drug loading [5, 9]: 13.42%
% Drug loading [5, 10]: 14.17%
% Drug loading [5, 11]: 12.56%
% Drug loading [5, 12]: 13.75%
% Drug loading [5, 13]: 12.68%
% Drug loading [5, 14]: 13.09%
% Drug loading [5, 15]: 13.15%
% Drug loading [5, 16]: 13.59%
% Drug loading [5, 17]: 13.49%

CCN(CC)CCNC(=O)c1c(C)[nH]c(/C=C2\C(=O)Nc3ccc(F)cc32)c1C [Sunitinib]
hepatotoxicity [6]: observed hepatotoxicity

CC(=O)OCC(=O)O[C@H](COc1nsnc1N1CCOCC1)CN(C(=O)COC(C)=O)C(C)(C)C [Compound 52, Timolol-N,O-bis-Glycolic acid-OAc]
parent Timolol released relative to total release of prodrug and intermediates ([7]; PBS and 1% Tween 20 (pH 7.4), 37° C.): primarily as native parent Timolol
maximum release duration ([7]; in vitro, FIG. 21): approximately 70 days
stability / breakdown into parent Timolol and breakdown products [8]: breaks down over the course of 15 days; also recorded: breaks down into parent Timolol

CC(=O)OCC(=O)N(C[C@@H](COc1nsnc1N1CCOCC1)OC(=O)COC(=O)C(C)OC(=O)C(C)O)C(C)(C)C (stereo partly shown) [Compound 53, Timolol-N-Glycolic acid-OAc-O-Glycolic acid-PLA (n = 2)-OH]
linear (4-month) drug release ([7]; in vitro): did not exhibit linear drug release; also recorded: did not consistently meet the 4-month criteria
stability / breakdown into parent Timolol and breakdown products [8]: breaks down over the course of 8 days; also recorded: a significant amount of an additional breakdown product
